# Columns and labels:
# [1] = system: Tyrosine-protein kinase ABL1 (Homo sapiens), P00519 [F317I]; conditions: Compound concentration 1000.0 nM
# [2] = system: Tyrosine-protein kinase ABL1 (Homo sapiens), P00519 [T315I]; conditions: Compound concentration 1000.0 nM
# [3] = biological target: Tyrosine-protein kinase ABL2 (Homo sapiens) (UniProt P42684); conditions: Compound concentration 1000.0 nM
# [4] = system: ALK tyrosine kinase receptor (Homo sapiens), Q9UM73 [C1156Y]; conditions: Compound concentration 1000.0 nM
# [5] = biological target: BMP-2-inducible protein kinase (Homo sapiens) (UniProt Q9NSY1); conditions: Compound concentration 1000.0 nM
# [6] = system: Serine/threonine-protein kinase B-raf (Homo sapiens), P15056 [V600E]; conditions: Compound concentration 1000.0 nM
# [7] = biological target: Peripheral plasma membrane protein CASK (Homo sapiens) (UniProt O14936); conditions: Compound concentration 1000.0 nM
# [8] = biological target: Cyclin-dependent kinase 13 (Homo sapiens) (UniProt Q14004); conditions: Compound concentration 1000.0 nM
# [9] = biological target: Dual specificity protein kinase CLK2 (Homo sapiens) (UniProt P49760); conditions: Compound concentration 1000.0 nM
# [10] = biological target: Casein kinase I isoform epsilon (Homo sapiens) (UniProt P49674); conditions: Compound concentration 1000.0 nM
# [11] = biological target: Casein kinase II subunit alpha' (Homo sapiens) (UniProt P19784); conditions: Compound concentration 1000.0 nM
# [12] = biological target: Death-associated protein kinase 2 (Homo sapiens) (UniProt Q9UIK4); conditions: Compound concentration 1000.0 nM
# [13] = biological target: Discoidin domain-containing receptor 2 (Homo sapiens) (UniProt Q16832); conditions: Compound concentration 1000.0 nM
# [14] = biological target: Dual specificity tyrosine-phosphorylation-regulated kinase 2 (Homo sapiens) (UniProt Q92630); conditions: Compound concentration 1000.0 nM
# [15] = biological target: Ephrin type-A receptor 7 (Homo sapiens) (UniProt Q15375); conditions: Compound concentration 1000.0 nM
# [16] = biological target: Ephrin type-B receptor 3 (Homo sapiens) (UniProt P54753); conditions: Compound concentration 1000.0 nM
# [17] = biological target: Mitogen-activated protein kinase 15 (Homo sapiens) (UniProt Q8TD08); conditions: Compound concentration 1000.0 nM
# [18] = system: Receptor-type tyrosine-protein kinase FLT3 (Homo sapiens), P36888 [D835Y]; conditions: Compound concentration 1000.0 nM
# [19] = system: Receptor-type tyrosine-protein kinase FLT3 (Homo sapiens), P36888 [N841I]; conditions: Compound concentration 1000.0 nM
# [20] = biological target: Beta-adrenergic receptor kinase 1 (Homo sapiens) (UniProt P25098); conditions: Compound concentration 1000.0 nM
# [21] = biological target: Tyrosine-protein kinase JAK1 (Homo sapiens) (UniProt P23458); conditions: Compound concentration 1000.0 nM
# [22] = biological target: Mast/stem cell growth factor receptor Kit (Homo sapiens) (UniProt P10721); conditions: Compound concentration 1000.0 nM
# [23] = biological target: Microtubule-associated serine/threonine-protein kinase 1 (Homo sapiens) (UniProt Q9Y2H9); conditions: Compound concentration 1000.0 nM
# [24] = biological target: Dual specificity mitogen-activated protein kinase kinase 4 (Homo sapiens) (UniProt P45985); conditions: Compound concentration 1000.0 nM
# [25] = biological target: Mitogen-activated protein kinase kinase kinase 10 (Homo sapiens) (UniProt Q02779); conditions: Compound concentration 1000.0 nM
# [26] = biological target: Myosin light chain kinase 2, skeletal/cardiac muscle (Homo sapiens) (UniProt Q9H1R3); conditions: Compound concentration 1000.0 nM
# [27] = biological target: Serine/threonine-protein kinase Nek6 (Homo sapiens) (UniProt Q9HC98); conditions: Compound concentration 1000.0 nM
# [28] = biological target: Serine/threonine-protein kinase Nek9 (Homo sapiens) (UniProt Q8TD19); conditions: Compound concentration 1000.0 nM
# [29] = biological target: Cyclin-dependent kinase 16 (Homo sapiens) (UniProt Q00536); conditions: Compound concentration 1000.0 nM
# [30] = biological target: Serine/threonine-protein kinase pim-2 (Homo sapiens) (UniProt Q9P1W9); conditions: Compound concentration 1000.0 nM
# [31] = biological target: cAMP-dependent protein kinase catalytic subunit alpha (Homo sapiens) (UniProt P17612); conditions: Compound concentration 1000.0 nM
# [32] = biological target: Serine/threonine-protein kinase PknB (Mycobacterium tuberculosis) (UniProt P9WI81); conditions: Compound concentration 1000.0 nM
# [33] = biological target: Protein kinase C theta type (Homo sapiens) (UniProt Q04759); conditions: Compound concentration 1000.0 nM
# [34] = biological target: Serine/threonine-protein kinase SIK3 (Homo sapiens) (UniProt Q9Y2K2); conditions: Compound concentration 1000.0 nM
# [35] = biological target: Serine/threonine-protein kinase 33 (Homo sapiens) (UniProt Q9BYT3); conditions: Compound concentration 1000.0 nM
# [36] = biological target: Dual specificity testis-specific protein kinase 1 (Homo sapiens) (UniProt Q15569); conditions: Compound concentration 1000.0 nM
# [37] = biological target: TGF-beta receptor type-1 (Homo sapiens) (UniProt P36897); conditions: Compound concentration 1000.0 nM
# [38] = biological target: TRAF2 and NCK-interacting protein kinase (Homo sapiens) (UniProt Q9UKE5); conditions: Compound concentration 1000.0 nM
# [39] = biological target: BDNF/NT-3 growth factors receptor (Homo sapiens) (UniProt Q16620); conditions: Compound concentration 1000.0 nM
# [40] = biological target: NT-3 growth factor receptor (Homo sapiens) (UniProt Q16288); conditions: Compound concentration 1000.0 nM
# [41] = biological target: Serine/threonine-protein kinase 25 (Homo sapiens) (UniProt O00506); conditions: Compound concentration 1000.0 nM
# [42] = biological target: D(1A) dopamine receptor (Homo sapiens) (UniProt P21728); conditions: Compound concentration 10.0 uM
# [43] = biological target: Mu-type opioid receptor (Homo sapiens) (UniProt P35372); conditions: Compound concentration 10.0 uM
# [44] = biological target: Alpha-1B adrenergic receptor (Homo sapiens) (UniProt P35368); conditions: Compound concentration 10.0 uM
# [45] = biological target: Muscarinic acetylcholine receptor M4 (Homo sapiens) (UniProt P08173); conditions: Compound concentration 10.0 uM
# [46] = biological target: Beta-3 adrenergic receptor (Homo sapiens, UniProt P13945); conditions: Compound concentration 10.0 uM
# Sequence of Beta-3 adrenergic receptor (P13945 whole entry, looked up): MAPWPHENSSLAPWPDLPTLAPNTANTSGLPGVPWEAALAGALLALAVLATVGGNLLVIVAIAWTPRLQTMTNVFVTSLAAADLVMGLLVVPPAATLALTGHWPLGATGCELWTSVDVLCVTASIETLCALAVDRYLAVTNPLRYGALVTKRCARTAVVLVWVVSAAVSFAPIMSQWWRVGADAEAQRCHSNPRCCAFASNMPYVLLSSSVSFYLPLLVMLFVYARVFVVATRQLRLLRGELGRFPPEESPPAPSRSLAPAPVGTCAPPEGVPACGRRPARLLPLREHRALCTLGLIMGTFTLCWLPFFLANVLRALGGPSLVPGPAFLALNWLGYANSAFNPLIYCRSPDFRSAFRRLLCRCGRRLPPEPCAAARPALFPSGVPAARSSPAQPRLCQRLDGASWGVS
# Sequence of Serine/threonine-protein kinase pim-2 (Homo sapiens) (Q9P1W9 whole entry, looked up): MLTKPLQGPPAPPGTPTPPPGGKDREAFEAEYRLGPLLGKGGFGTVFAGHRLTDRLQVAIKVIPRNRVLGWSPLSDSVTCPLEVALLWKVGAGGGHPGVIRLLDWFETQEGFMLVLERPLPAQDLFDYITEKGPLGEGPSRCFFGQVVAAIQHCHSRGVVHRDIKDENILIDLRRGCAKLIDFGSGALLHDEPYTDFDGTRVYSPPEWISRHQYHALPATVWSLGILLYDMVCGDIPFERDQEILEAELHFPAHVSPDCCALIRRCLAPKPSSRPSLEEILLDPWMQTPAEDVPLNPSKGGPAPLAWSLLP
# Sequence of Serine/threonine-protein kinase B-raf (Homo sapiens), P15056 [V600E] (P15056 whole entry V600E): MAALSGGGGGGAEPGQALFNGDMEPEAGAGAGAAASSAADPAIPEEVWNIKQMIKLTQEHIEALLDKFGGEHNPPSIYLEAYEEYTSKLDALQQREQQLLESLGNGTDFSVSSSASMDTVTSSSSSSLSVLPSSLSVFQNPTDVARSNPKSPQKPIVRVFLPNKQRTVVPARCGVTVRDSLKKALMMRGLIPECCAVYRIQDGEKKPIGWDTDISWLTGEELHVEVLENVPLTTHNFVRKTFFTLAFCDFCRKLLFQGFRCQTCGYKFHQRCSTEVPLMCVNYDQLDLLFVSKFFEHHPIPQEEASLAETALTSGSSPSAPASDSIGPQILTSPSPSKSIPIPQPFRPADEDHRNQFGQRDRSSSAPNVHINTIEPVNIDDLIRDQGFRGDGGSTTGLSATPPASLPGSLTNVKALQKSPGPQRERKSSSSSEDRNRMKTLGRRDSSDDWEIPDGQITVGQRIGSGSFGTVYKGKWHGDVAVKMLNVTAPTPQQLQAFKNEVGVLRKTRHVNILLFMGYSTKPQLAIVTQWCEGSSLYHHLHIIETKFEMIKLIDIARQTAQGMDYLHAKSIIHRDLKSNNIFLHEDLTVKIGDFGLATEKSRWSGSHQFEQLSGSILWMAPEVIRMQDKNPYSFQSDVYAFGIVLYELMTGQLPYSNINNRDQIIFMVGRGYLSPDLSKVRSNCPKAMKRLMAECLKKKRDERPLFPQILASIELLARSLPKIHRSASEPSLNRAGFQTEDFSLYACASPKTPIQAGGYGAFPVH
# Sequence of Ephrin type-A receptor 7 (Homo sapiens) (Q15375 28-998 limits assumed): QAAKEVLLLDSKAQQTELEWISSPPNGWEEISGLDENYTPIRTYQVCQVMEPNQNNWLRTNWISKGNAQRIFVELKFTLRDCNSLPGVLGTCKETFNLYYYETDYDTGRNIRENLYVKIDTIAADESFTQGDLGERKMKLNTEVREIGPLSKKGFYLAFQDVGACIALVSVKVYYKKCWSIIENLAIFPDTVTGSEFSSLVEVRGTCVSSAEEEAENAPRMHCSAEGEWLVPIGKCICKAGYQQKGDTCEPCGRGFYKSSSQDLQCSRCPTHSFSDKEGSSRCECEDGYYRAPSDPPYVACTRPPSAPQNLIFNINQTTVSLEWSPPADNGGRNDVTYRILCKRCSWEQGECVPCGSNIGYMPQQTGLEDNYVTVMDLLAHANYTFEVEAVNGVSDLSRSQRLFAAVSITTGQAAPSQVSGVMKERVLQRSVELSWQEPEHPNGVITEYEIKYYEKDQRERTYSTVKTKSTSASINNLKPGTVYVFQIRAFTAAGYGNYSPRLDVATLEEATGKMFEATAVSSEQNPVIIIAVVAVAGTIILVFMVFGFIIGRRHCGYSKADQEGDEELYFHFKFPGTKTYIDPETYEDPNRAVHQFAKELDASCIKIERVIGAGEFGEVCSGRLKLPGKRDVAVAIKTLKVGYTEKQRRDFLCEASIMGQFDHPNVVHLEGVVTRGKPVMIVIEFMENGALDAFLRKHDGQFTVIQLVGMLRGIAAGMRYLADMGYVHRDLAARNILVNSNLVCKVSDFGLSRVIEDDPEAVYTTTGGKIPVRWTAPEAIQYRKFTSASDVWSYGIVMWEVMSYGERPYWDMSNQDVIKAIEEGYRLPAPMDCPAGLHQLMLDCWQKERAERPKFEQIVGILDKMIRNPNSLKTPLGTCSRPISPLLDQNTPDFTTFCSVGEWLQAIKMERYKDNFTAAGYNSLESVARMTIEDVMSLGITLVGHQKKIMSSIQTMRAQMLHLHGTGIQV
# Sequence of Serine/threonine-protein kinase 33 (Homo sapiens) (Q9BYT3 whole entry, looked up): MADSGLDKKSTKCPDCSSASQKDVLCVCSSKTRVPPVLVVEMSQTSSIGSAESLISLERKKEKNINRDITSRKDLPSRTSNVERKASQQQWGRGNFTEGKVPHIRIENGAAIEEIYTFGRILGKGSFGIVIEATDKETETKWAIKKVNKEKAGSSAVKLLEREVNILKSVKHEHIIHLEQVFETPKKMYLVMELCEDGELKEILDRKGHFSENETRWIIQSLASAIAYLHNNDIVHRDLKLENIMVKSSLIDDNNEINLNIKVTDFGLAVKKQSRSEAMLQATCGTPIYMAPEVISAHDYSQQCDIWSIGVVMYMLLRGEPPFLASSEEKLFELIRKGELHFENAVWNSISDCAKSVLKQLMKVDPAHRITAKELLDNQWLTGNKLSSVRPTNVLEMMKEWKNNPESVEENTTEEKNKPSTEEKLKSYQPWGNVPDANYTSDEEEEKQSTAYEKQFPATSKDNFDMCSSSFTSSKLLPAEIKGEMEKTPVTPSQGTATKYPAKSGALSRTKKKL
# Sequence of TGF-beta receptor type-1 (Homo sapiens) (P36897 whole entry): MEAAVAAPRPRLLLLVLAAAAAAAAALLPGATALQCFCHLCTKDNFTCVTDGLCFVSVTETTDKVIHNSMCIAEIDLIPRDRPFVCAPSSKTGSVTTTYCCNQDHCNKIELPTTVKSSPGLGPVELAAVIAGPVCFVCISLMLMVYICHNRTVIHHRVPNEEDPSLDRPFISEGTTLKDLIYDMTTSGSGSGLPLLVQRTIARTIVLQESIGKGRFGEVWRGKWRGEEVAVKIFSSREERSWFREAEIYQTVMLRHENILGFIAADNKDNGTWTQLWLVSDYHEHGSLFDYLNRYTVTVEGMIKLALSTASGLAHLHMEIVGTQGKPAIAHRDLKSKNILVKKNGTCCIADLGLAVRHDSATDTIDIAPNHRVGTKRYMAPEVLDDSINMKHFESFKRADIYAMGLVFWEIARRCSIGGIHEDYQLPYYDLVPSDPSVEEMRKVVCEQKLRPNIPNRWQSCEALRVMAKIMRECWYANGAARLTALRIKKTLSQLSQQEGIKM
# Sequence of Dual specificity tyrosine-phosphorylation-regulated kinase 2 (Homo sapiens) (Q92630 whole entry): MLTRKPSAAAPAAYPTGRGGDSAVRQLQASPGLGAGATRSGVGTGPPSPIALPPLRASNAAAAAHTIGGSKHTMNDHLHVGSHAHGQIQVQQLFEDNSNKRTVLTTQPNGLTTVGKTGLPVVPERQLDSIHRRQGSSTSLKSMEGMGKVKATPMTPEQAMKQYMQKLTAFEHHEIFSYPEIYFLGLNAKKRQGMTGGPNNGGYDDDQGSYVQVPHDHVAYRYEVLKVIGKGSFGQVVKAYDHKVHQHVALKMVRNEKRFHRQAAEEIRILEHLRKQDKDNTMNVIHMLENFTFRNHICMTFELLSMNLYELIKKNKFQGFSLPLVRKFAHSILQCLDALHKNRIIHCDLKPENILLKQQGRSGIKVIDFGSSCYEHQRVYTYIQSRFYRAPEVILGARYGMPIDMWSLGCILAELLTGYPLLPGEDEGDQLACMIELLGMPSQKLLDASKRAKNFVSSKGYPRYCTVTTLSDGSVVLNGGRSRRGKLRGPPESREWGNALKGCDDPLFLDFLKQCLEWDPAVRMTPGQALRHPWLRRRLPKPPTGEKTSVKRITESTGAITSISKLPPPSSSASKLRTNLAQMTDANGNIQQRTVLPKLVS
# Sequence of Muscarinic acetylcholine receptor M4 (Homo sapiens) (P08173 whole entry): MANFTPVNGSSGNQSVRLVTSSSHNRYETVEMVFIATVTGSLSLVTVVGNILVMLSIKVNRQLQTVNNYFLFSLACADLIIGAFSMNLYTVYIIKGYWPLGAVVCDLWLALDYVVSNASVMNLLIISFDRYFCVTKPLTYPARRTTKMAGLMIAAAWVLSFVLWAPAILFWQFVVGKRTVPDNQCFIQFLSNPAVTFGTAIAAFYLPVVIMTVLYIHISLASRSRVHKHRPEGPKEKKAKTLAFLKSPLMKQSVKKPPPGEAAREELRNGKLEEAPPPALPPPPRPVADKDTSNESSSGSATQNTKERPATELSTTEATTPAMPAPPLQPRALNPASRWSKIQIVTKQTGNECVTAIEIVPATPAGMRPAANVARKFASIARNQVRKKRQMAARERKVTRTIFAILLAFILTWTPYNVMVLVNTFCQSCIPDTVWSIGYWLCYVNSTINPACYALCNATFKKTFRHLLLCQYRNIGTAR
# Sequence of Serine/threonine-protein kinase 25 (Homo sapiens) (O00506 whole entry, looked up): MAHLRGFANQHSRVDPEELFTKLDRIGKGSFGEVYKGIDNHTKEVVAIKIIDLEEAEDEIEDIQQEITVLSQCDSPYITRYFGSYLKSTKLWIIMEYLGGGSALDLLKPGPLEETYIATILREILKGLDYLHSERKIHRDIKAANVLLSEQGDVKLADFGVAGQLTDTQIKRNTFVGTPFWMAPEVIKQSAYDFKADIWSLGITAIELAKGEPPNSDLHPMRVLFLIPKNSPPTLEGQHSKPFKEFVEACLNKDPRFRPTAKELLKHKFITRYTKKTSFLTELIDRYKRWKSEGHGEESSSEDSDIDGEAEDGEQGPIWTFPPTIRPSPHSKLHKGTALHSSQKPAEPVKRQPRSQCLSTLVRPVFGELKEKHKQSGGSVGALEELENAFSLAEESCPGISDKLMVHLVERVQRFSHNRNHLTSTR
smiles,measurement,setting,value
CC(=O)Nc1c(C(C)=O)c(=O)n(C)c2nc(-c3ccc(Cl)cc3Cl)c(-c3ccc(Cl)cc3)cc12 [NAPHTHYRIDINONE],residual activity,[1],77%
same,residual activity,[2],100%
same,residual activity,[3],100%
same,residual activity,[4],100%
same,residual activity,[5],100%
same,residual activity,[6],100%
same,residual activity,[7],83%
same,residual activity,[8],100%
same,residual activity,[9],100%
same,residual activity,[10],100%
same,residual activity,[11],100%
same,residual activity,[12],100%
same,residual activity,[13],100%
same,residual activity,[14],100%
same,residual activity,[15],100%
same,residual activity,[16],100%
same,residual activity,[17],100%
same,residual activity,[18],100%
same,residual activity,[19],100%
same,residual activity,[20],84%
same,residual activity,[21],100%
same,residual activity,[22],100%
same,residual activity,[23],100%
same,residual activity,[24],100%
same,residual activity,[25],100%
same,residual activity,[26],100%
same,residual activity,[27],100%
same,residual activity,[28],100%
same,residual activity,[29],100%
same,residual activity,[30],100%
same,residual activity,[31],100%
same,residual activity,[32],100%
same,residual activity,[33],100%
same,residual activity,[34],100%
same,residual activity,[35],100%
same,residual activity,[36],100%
same,residual activity,[37],82%
same,residual activity,[38],100%
same,residual activity,[39],100%
same,residual activity,[40],100%
same,residual activity,[41],100%
same,inhibition,[42],2.02%
same,inhibition,[43],8.16%
same,inhibition,[44],17.1%
same,inhibition,[45],0.711%
same,inhibition,[46],37.6%
CC(=O)c1c(NS(C)(=O)=O)c2cc(-c3ccc(Cl)cc3)c(-c3ccc(Cl)cc3Cl)nc2n(C)c1=O [MRL-CB1-NC],residual activity,[1],76%
same,residual activity,[2],93%
same,residual activity,[3],100%
same,residual activity,[4],100%
same,residual activity,[5],100%
same,residual activity,[6],88%
same,residual activity,[7],92%
same,residual activity,[8],96%
same,residual activity,[9],100%
same,residual activity,[10],100%
same,residual activity,[11],100%
same,residual activity,[12],100%
same,residual activity,[13],96%
same,residual activity,[14],93%
same,residual activity,[15],100%
same,residual activity,[16],100%
same,residual activity,[17],100%
same,residual activity,[18],95%
same,residual activity,[19],100%
same,residual activity,[20],74%
same,residual activity,[21],76%
same,residual activity,[22],100%
same,residual activity,[23],100%
same,residual activity,[24],89%
same,residual activity,[25],99%
same,residual activity,[26],98%
same,residual activity,[27],100%
same,residual activity,[28],100%
same,residual activity,[29],76%
same,residual activity,[30],100%
same,residual activity,[31],100%
same,residual activity,[32],83%
same,residual activity,[33],100%
same,residual activity,[34],100%
same,residual activity,[35],100%
same,residual activity,[36],100%
same,residual activity,[37],100%
same,residual activity,[38],93%
same,residual activity,[39],94%
same,residual activity,[40],98%
same,residual activity,[41],100%
same,inhibition,[42],14.2%
same,inhibition,[43],34.4%
same,inhibition,[44],47.2%
same,inhibition,[45],16.2%
same,inhibition,[46],69.3%
